Test results as given in patent US9561231B2 (AbbVie Inc., priority 2012, dated 2017).
pEC50, pKi: −log10 of the molar value. Like-named read-outs stand apart in the source and are kept apart here.

Key:
[1] = molecular target: T1, second (BD2: amino acids E352-E168) bromodomain of BRD4 (Homo sapiens, UniProt O60885); experiment: TR-FRET bromodomain binding assay, BRD4 BD2; details: Ki calculated from IC50, probe Kd and probe concentration, read-out: TR-FRET Binding Ki: BRD4 (BDII_E352-M457)
T1 construct: protocol
Summary of the method: (§1)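 Displacement of an Alexa647-labelled BET-inhibitor from His-tagged BD1 (K57-E168) or BD2 ([…]) measured by TR-FRET in pH 6.0 sodium phosphate buffer with NaCl, EDTA, Triton X-100 and DTT.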

[2] = system: breast cancer cell line MX-1; experiment: MX-1 cell line proliferation assay (3-day); assay type: cell-based; details: Homo sapiens, MX1, MX-1 cells, Cell Titer Glo, read-out: Cellular proliferation: EC50
Summary of the method: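 MX-1 cells in RPMI/10% FBS, plated 5000/well overnight, then exposed to compound at final 3 to 0.0001 μM (3-fold series) for 3 days at 37° C. Cell Titer Glo luminescence normalized to DMSO-treated cells; EC50 from sigmoidal curve fit.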

[3] = molecular target: T2, first (BD1: amino acids K57-E168) bromodomain of BRD4 (Homo sapiens, UniProt O60885); experiment: TR-FRET bromodomain binding assay, BRD4 BD1; details: Ki calculated from IC50, probe Kd and probe concentration, read-out: TR-FRET Binding Ki: BRD4 (BDI_K57-E168)
T2 construct: His-tagged first (BD1: amino acids K57-E168)
Summary of the method: as §1

[4] = TR-FRET assay protocol (D, E or G) per compound
[5] = TR-FRET assay protocol (A-G, compound concentration range)

Compound | pKi [1, 4] | pEC50 ([2]; 72 hours with compound) | pKi [3, 4] | pKi [1, 5] | pEC50 ([2]; 72 h incubation) | pKi [3, 5]
COC(=O)/C=C/c1cc(=O)n(C)nc1-c1ccccc1Oc1ccccc1 [Example 219, methyl (2E)-3-[1-methyl-6-oxo-3-(2-phenoxyphenyl)-1,6-dihydropyridazin-4-yl]prop-2-enoate] | – | – | – | 6.51 | 5.26 | 5.14
Cn1cc(-c2cc(NS(C)(=O)=O)ccc2Oc2ccccc2C#N)ccc1=O [Example 237, N-[4-(2-cyanophenoxy)-3-(1-methyl-6-oxo-1,6-dihydropyridin-3-yl)phenyl]methanesulfonamide] | – | – | – | 6.64 | 5.86 | 7.79
Cn1nc(-c2ccccc2Oc2ccccc2)c(-c2ccc(CN3CCNCC3)cc2)cc1=O [Example 70, 2-methyl-6-(2-phenoxyphenyl)-5-[4-(piperazin-1-ylmethyl)phenyl]pyridazin-3(2H)-one] | – | – | – | 7.21 | 6.09 | 7.05
Cn1nc(-c2ccccc2Oc2ccccc2)c(-c2ccc(CNS(C)(=O)=O)cc2)cc1=O [Example 98, N-{4-[1-methyl-6-oxo-3-(2-phenoxyphenyl)-1,6-dihydropyridazin-4-yl]benzyl}methanesulfonamide] | – | – | – | 7.15 | 6.19 | 6.67
Cn1cc(-c2cc(NS(C)(=O)=O)ccc2Oc2ccccc2F)ccc1=O [Example 239, N-[4-(2-fluorophenoxy)-3-(1-methyl-6-oxo-1,6-dihydropyridin-3-yl)phenyl]methanesulfonamide] | – | – | – | 7.40 | 6.86 | 7.49
Cn1nc(-c2ccccc2Oc2ccccc2)ccc1=O [Example 1, 2-methyl-6-(2-phenoxyphenyl)pyridazin-3(2H)-one] | – | – | – | 5.69 | 4.70 | 5.73
CCC(O)c1ccc(-c2cc(=O)n(C)nc2-c2ccccc2Oc2ccccc2)cc1 (stereo not drawn) [Example 75, 5-[4-(1-hydroxypropyl)phenyl]-2-methyl-6-(2-phenoxyphenyl)pyridazin-3(2H)-one] | – | – | – | 6.71 | 5.86 | 6.58
CNS(=O)(=O)Nc1ccc(Oc2ccccc2)c(-c2ccc(=O)n(C)c2)c1 [Example 230, N-methyl-N′-[3-(1-methyl-6-oxo-1,6-dihydropyridin-3-yl)-4-phenoxyphenyl]sulfuric diamide] | – | – | – | 7.32 | 6.40 | 7.25
CC(=O)Nc1ccc(-c2cc(=O)n(C)nc2-c2ccccc2Oc2ccccc2)cc1 [Example 105, N-{4-[1-methyl-6-oxo-3-(2-phenoxyphenyl)-1,6-dihydropyridazin-4-yl]phenyl}acetamide] | – | – | – | 7.07 | < 5.52 | 6.29
Cn1nc(-c2ccccc2Oc2ccccc2)c(-c2ccc(CN3CCOCC3)cc2)cc1=O [Example 66, 2-methyl-5-[4-(morpholin-4-ylmethyl)phenyl]-6-(2-phenoxyphenyl)pyridazin-3(2H)-one] | – | – | – | 6.80 | 5.61 | 6.85
Cc1ccc(-c2cc(=O)n(C)nc2-c2cc(NS(C)(=O)=O)ccc2Oc2ccccc2)cc1 [Example 63, N-{3-[1-methyl-4-(4-methylphenyl)-6-oxo-1,6-dihydropyridazin-3-yl]-4-phenoxyphenyl}methanesulfonamide] | – | – | – | 7.62 | 6.13 | 7.07
Cn1nc(-c2ccccc2Oc2ccccc2)c(-c2ccc(CN3CCCCC3)cc2)cc1=O [Example 67, 2-methyl-6-(2-phenoxyphenyl)-5-[4-(piperidin-1-ylmethyl)phenyl]pyridazin-3(2H)-one] | – | – | – | 7.03 | 5.76 | 7.15
CCOC(=O)c1cccc(-c2cc(=O)n(C)nc2-c2ccccc2Oc2ccccc2)c1 [Example 59, ethyl 3-[1-methyl-6-oxo-3-(2-phenoxyphenyl)-1,6-dihydropyridazin-4-yl]benzoate] | – | – | – | 5.68 | < 4.52 | 5.01
COc1cc(=O)n(C)nc1-c1ccccc1Oc1ccc(F)cc1 [Example 33, 6-[2-(4-fluorophenoxy)phenyl]-5-methoxy-2-methylpyridazin-3(2H)-one] | – | – | – | 5.64 | 5.39 | 5.52
Cn1nc(-c2cc(CNC(=O)C(F)(F)F)ccc2Oc2ccccc2)ccc1=O [Example 17, 2,2,2-trifluoro-N-[3-(1-methyl-6-oxo-1,6-dihydropyridazin-3-yl)-4-phenoxybenzyl]acetamide] | – | – | – | 5.34 | 5.58 | 6.29

Other lines, results leading:

pKi [1, 4] | pEC50 ([2]; 72 hours with compound) | pKi [3, 4] | pKi [1, 5] | pEC50 ([2]; 72 h incubation) | pKi [3, 5] | Compound
6.78 | 6.07 | 6.93 | – | – | – | CCOc1cc(=O)n(C)cc1-c1cc(S(=O)(=O)CC)ccc1NC1CC1 [Example 373, 5-[2-(cyclopropylamino)-5-(ethylsulfonyl)phenyl]-4-ethoxy-1-methylpyridin-2(1H)-one]
– | – | – | 7.12 | < 5.52 | 7.08 | CCS(=O)(=O)Nc1ccc(Oc2ccc(F)cc2F)c(-c2cn(C)c(=O)cc2OCCN2CCOCC2)c1 [Example 286, N-[4-(2,4-difluorophenoxy)-3-{1-methyl-4-[2-(morpholin-4-yl)ethoxy]-6-oxo-1,6-dihydropyridin-3-yl]phenyl}ethanesulfonamide]
– | – | – | 8.74 | 7.35 | 8.24 | CCS(=O)(=O)Nc1ccc(Oc2ccc(F)cc2F)c(-c2cn(C)c(=O)cc2-c2ccc(N3CCOCC3)cc2)c1 [Example 284, N-[4-(2,4-difluorophenoxy)-3-{1-methyl-4-[4-(morpholin-4-yl)phenyl]-6-oxo-1,6-dihydropyridin-3-yl]phenyl}ethanesulfonamide]
7.92 | 6.60 | 7.54 | – | – | – | CCOc1cc(=O)n(C)cc1-c1cc(NC(=O)c2cc(Cl)ccc2Cl)ccc1Oc1ccc(F)cc1F [Example 412, 2,5-dichloro-N-[4-(2,4-difluorophenoxy)-3-(4-ethoxy-1-methyl-6-oxo-1,6-dihydropyridin-3-yl)phenyl]benzamide]
6.84 | 6.63 | 7.19 | – | – | – | CCOc1cc(=O)n(C)cc1-c1cc(NS(=O)(=O)CC)ccc1OC1CCC1 [Example 384, N-[4-(cyclobutyloxy)-3-(4-ethoxy-1-methyl-6-oxo-1,6-dihydropyridin-3-yl)phenyl]ethanesulfonamide]
– | – | – | 8.03 | 6.89 | 7.54 | COc1cc(=O)n(C)cc1-c1cc(NS(C)(=O)=O)ccc1Oc1ccccc1 [Example 259, N-[3-(4-methoxy-1-methyl-6-oxo-1,6-dihydropyridin-3-yl)-4-phenoxyphenyl]methanesulfonamide]
– | – | – | 8.34 | 6.78 | 7.77 | Cn1cc(-c2cc(NS(C)(=O)=O)ccc2Oc2ccc(F)cc2F)c(-c2ccc(CO)cc2)cc1=O [Example 272, N-[4-(2,4-difluorophenoxy)-3-{4-[4-(hydroxymethyl)phenyl]-1-methyl-6-oxo-1,6-dihydropyridin-3-yl]phenyl}methanesulfonamide]
– | – | – | 5.34 | 6.31 | 6.81 | Cn1cc(-c2cc(NS(C)(=O)=O)ccc2OC2CCCC2)ccc1=O [Example 248, N-[4-(cyclopentyloxy)-3-(1-methyl-6-oxo-1,6-dihydropyridin-3-yl)phenyl]methanesulfonamide]
– | – | – | 6.76 | 5.76 | 6.88 | CC(=O)Nc1ccc(Oc2ccc(F)cc2F)c(-c2c[nH]c(=O)c(C)c2)c1 [Example 265, N-[4-(2,4-difluorophenoxy)-3-(5-methyl-6-oxo-1,6-dihydropyridin-3-yl)phenyl]acetamide]
– | – | – | 8.06 | 6.82 | 7.36 | CCCS(=O)(=O)Nc1ccc(Oc2ccc(F)cc2F)c(-c2cn(C)c(=O)cc2OCC)c1 [Example 349, N-[4-(2,4-difluorophenoxy)-3-(4-ethoxy-1-methyl-6-oxo-1,6-dihydropyridin-3-yl)phenyl]propane-1-sulfonamide]
– | – | – | 8.67 | 7.22 | 8.18 | CCS(=O)(=O)Nc1ccc(Oc2ccc(F)cc2F)c(-c2cn(C)c(=O)cc2OCC2CC2)c1 [Example 287, N-(3-(4-(cyclopropylmethoxy)-1-methyl-6-oxo-1,6-dihydropyridin-3-yl)-4-(2,4-difluorophenoxy)phenyl)ethanesulfonamide]
– | – | – | 7.76 | 5.53 | 8.58 | CCS(=O)(=O)Nc1ccc(Oc2ccc(F)cc2F)c(-c2cn(C)c(=O)cc2OC2CC3(CNC3)C2)c1 [Example 326, N-{3-[4-(2-azaspiro[3.3]hept-6-yloxy)-1-methyl-6-oxo-1,6-dihydropyridin-3-yl]-4-(2,4-difluorophenoxy)phenyl}ethanesulfonamide]
8.30 | 7.60 | 7.70 | – | – | – | CCOc1cc(=O)n(C)cc1-c1cc(NS(=O)(=O)CC)ccc1Oc1ccc(F)c(F)c1 [Example 401, N-[4-(3,4-difluorophenoxy)-3-(4-ethoxy-1-methyl-6-oxo-1,6-dihydropyridin-3-yl)phenyl]ethanesulfonamide]
